Values of other authors, collected in patent US12091391B2, “Reagents and methods for bioorthogonal labeling of biomolecules in living cells” (Oregon State University, priority 2015, dated 2024).

Substance: cyclopropane-fused trans cyclooctene [sTCO]
- half-life in vivo: 16.1 h
